# Where two headings read alike, the source gives them in different places.
# Molecular target: T1, P2Y12 receptor (Homo sapiens, UniProt Q9H244)
# T1 construct: expressed in transfected cells; host or cells: CHO cells (membrane preparation)
# Test: Functional inhibition of 2-Me-S-ADP induced P2Y12 signalling (35S-GTPγS, cell membranes from P2Y12 transfected CHO-cells)
# Format: biochemical
# From the text: Functional inhibition of—the P2Y12 receptor can be measured by in vitro assays using cell membranes from P2Y12 transfected CHO-cells. Inhibition of platelet aggregation as a result of P2Y12 antagonism is best measured by ADP-induced aggregation of washed human platelets, activation of the platelet fibrinogen receptor (GPIIb/IIIa), or aggregation in whole blood via residual platelet counting. Detailed methodology is indicated below.
# Functional inhibition of 2-Me-S-ADP induced P2Y12 signalling: 5 μg of membranes were diluted in 200 μl of 200 mM NaCl, 1 mM MgCl2, 50 mM HEPES (pH 7.4), 0.01% BSA, 30 μg/ml saponin and 10 μM GDP. To this was added an EC80 concentration of agonist (2-methyl-thio-adenosine diphosphate), the required concentration of test compound and 0.1 μCi ^35S-GTPγS. The reaction was allowed to proceed at 30° C. for 45 min. Samples were then transferred on to GF/B filters using a cell harvester and washed with wash buffer (50 mM Tris (pH 7.4), 5 mM MgCl2, 50 mM NaCl). Filters were then covered with scintilant and counted for the amount of ^35S-GTPγS retained by the filter. Maximum activity was that determined in the presence of the agonist and minimum activity in the absence of the agonist following subtraction of the value determined for non-specific activity.
# T1 sequence (Q9H244 whole entry): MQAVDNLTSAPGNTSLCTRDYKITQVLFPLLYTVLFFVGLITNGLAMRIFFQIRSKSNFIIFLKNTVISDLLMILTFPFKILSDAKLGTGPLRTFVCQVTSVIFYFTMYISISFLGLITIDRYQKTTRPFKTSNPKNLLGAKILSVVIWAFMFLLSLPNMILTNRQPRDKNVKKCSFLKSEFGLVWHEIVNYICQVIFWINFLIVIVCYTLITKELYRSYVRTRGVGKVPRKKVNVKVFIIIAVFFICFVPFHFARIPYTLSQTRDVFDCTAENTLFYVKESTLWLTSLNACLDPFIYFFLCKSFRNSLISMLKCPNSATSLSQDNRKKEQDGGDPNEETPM
Structure (SMILES),"IC50 (5 μg membranes, EC80 concentration of agonist 2-methyl-thio-adenosine diphosphate, 35S-GTPγS, 30° C., 45 min, read-out: IC50) [nM]",IC50 [nM]
"CCOC(=O)c1cnc(N2CCN(C(=O)NS(=O)(=O)c3ccccc3)CC2)c(Cl)c1 [Example 10, Ethyl 5-chloro-6-(4-{[(phenylsulfonyl)amino]carbonyl}piperazin-1-yl)nicotinate]",610,–
"CC(C)OC(=O)c1cnc(N2CCN(C(=O)NS(=O)(=O)c3ccc(Cl)s3)CC2)c(Cl)c1 [Example 18, Isopropyl 5-chloro-6-[4-({[(5-chloro-2-thienyl)sulfonyl]amino}carbonyl)piperazin-1-yl]nicotinate]",–,520
